Results as given in patent US20240124444A1 (Celgene Corporation, priority 2020, published 2024).
Read-outs that look alike come from different tables or passages of the source.

System: C. parvum strain UGA1
Assay: C. parvum growth inhibition assay (Nluc luminescence in HCT-8 cells)
Type: cell-based, Cryptosporidium parvum
Settings: Cryptosporidium parvum; for EC50: HCT-8, 48 h, C. parvum growth inhibition in HCT-8 cells, 48 hours, 6 concentrations 10-0.04 μM; for inhibition at 1 µM / inhibition at 10 µM: HCT-8; for inhibition at 1 µM: read-out: % inh @ 1 uM C. parvum; for inhibition at 10 µM: read-out: % inh @ 10 uM C. parvum
[1] = single point inhibition @ 10 uM
[2] = single point inhibition at 1 uM
[3] = single point inhibition at 10 uM

Structure (SMILES)	EC50	inhibition at 1 µM (single point inhibition @ 1 uM)	inhibition at 10 µM [1]	inhibition at 1 µM [2]	inhibition at 10 µM [3]
COc1nccc(-c2cc3cnc(NC(=O)[C@H]4C[C@H](O)C4)cc3[nH]2)n1 [Example 63, (1r,3r)-3-hydroxy-N-(2-(2-methoxypyrimidin-4-yl)-1H-pyrrolo[3,2-c]pyridin-6-yl)cyclobutanecarboxamide]	> 1 µM	0 to 33%	67 to 100%	–	–
Cn1cnc(-c2cc3cnc(NC(=O)C4CC4)cc3n2C)c1 [Example 342, N-(1-methyl-2-(1-methyl-1H-imidazol-4-yl)-1H-pyrrolo[3,2-c]pyridin-6-yl)cyclopropanecarboxamide]	> 1 µM	–	–	–	–
FC(F)(F)CNc1nccc(-c2cc3cnc(NC4CCOC4)cc3[nH]2)n1 (stereo in doubt) [Example 374, (S)-N-(tetrahydrofuran-3-yl)-2-(2-(2,2,2-trifluoroethylamino)pyrimidin-4-yl)-1H-pyrrolo[3,2-c]pyridin-6-amine]	0.5 to 1 µM	–	–	–	–
CC(C)C(=O)Nc1cc2[nH]c(-c3ccncc3)cc2cn1 [Example 78, N-(2-(pyridin-4-yl)-1H-pyrrolo[3,2-c]pyridin-6-yl)isobutyramide]	> 1 µM	33 to 66%	67 to 100%	–	–
Cn1cc(-c2cc3cnc(Nc4ccccc4)cc3n2C)cn1 [Example 70, 1-methyl-2-(1-methyl-1H-pyrazol-4-yl)-N-phenyl-1H-pyrrolo[3,2-c]pyridin-6-amine]	> 1 µM	33 to 66%	67 to 100%	–	–
Cn1c(-c2cccnc2)cc2cnc(Nc3cccc(-c4nc[nH]n4)c3)cc21 [Example 275, N-(3-(1H-1,2,4-triazol-3-yl)phenyl)-1-methyl-2-(pyridin-3-yl)-1H-pyrrolo[3,2-c]pyridin-6-amine]	–	–	–	0 to 33%	0 to 33%
COc1nccc(-c2cc3cnc(NC(=O)[C@H]4C[C@@H](O)C4)cc3[nH]2)n1 [Example 167, (1s,3s)-3-hydroxy-N-(2-(2-methoxypyrimidin-4-yl)-1H-pyrrolo[3,2-c]pyridin-6-yl)cyclobutanecarboxamide]	–	33 to 66%	67 to 100%	–	–
COc1nccc(-c2cc3cnc(NC(=O)c4ccc(N5CCOCC5)cc4)cc3[nH]2)n1 [Example 320, N-(2-(2-methoxypyrimidin-4-yl)-1H-pyrrolo[3,2-c]pyridin-6-yl)-4-morpholinobenzamide]	–	–	–	0 to 33%	0 to 33%
COc1nccc(-c2cc3cnc(NC(=O)CC4COC4)cc3[nH]2)n1 [Example 227, N-(2-(2-methoxypyrimidin-4-yl)-1H-pyrrolo[3,2-c]pyridin-6-yl)-2-(oxetan-3-yl)acetamide]	–	–	–	0 to 33%	33 to 66%
Cn1c(-c2ccnc(NCC(F)(F)F)n2)cc2cnc(N[C@H]3CCCOC3)cc21 (racemic) [Example 36, 1-Methyl-N-[rac-(3s)-tetrahydropyran-3-yl]-2-[2-(2,2,2-trifluoroethylamino)pyrimidin-4-yl]pyrrolo[3,2-c]pyridin-6-amine]	> 1 µM	33 to 66%	67 to 100%	–	–
Cc1cc(Nc2cc3[nH]c(-c4ccnc(C#N)c4)cc3cn2)cc(-n2cncn2)c1 [Example 339, 4-(6-(3-methyl-5-(1H-1,2,4-triazol-1-yl)phenylamino)-1H-pyrrolo[3,2-c]pyridin-2-yl)picolinonitrile]	–	–	–	0 to 33%	0 to 33%
COCCOc1ccc(C(=O)Nc2cc3[nH]c(-c4ccnc(C)c4)cc3cn2)cc1OC [Example 295, 3-methoxy-4-(2-methoxyethoxy)-N-(2-(2-methylpyridin-4-yl)-1H-pyrrolo[3,2-c]pyridin-6-yl)benzamide]	–	–	–	0 to 33%	0 to 33%
Cc1cc(-c2cc3cnc(NC(=O)C4CC4)cc3n2CCO)ccn1 [Example 93, N-(1-(2-hydroxyethyl)-2-(2-methylpyridin-4-yl)-1H-pyrrolo[3,2-c]pyridin-6-yl)cyclopropanecarboxamide]	> 1 µM	0 to 33%	0 to 33%	–	–
Cc1cc(C(=O)Nc2cc3[nH]c(-c4ccnc(NCC(F)(F)F)c4)cc3cn2)nn1C [Example 305, 1,5-dimethyl-N-(2-(2-(2,2,2-trifluoroethylamino)pyridin-4-yl)-1H-pyrrolo[3,2-c]pyridin-6-yl)-1H-pyrazole-3-carboxamide]	–	–	–	0 to 33%	0 to 33%
Cc1cc(-c2cc3cnc(NC(=O)C4CC4)cc3n2CCN(C)C)ncn1 [Example 124, N-(1-(2-(dimethylamino)ethyl)-2-(6-methylpyrimidin-4-yl)-1H-pyrrolo[3,2-c]pyridin-6-yl)cyclopropanecarboxamide]	> 1 µM	–	–	–	–
CC(=O)Nc1cc2[nH]c(-c3ccncc3)cc2cn1 [Example 181, N-(2-(pyridin-4-yl)-1H-pyrrolo[3,2-c]pyridin-6-yl)acetamide]	–	0 to 33%	67 to 100%	–	–

Structure (SMILES)	EC50	inhibition at 1 µM (single point inhibition @ 1 uM)	inhibition at 10 µM [1]	inhibition at 1 µM [2]	inhibition at 10 µM [3]
Cc1cc(-c2cc3cnc(NC(=O)C(C)O)cc3[nH]2)ccn1 (stereo in doubt) [Example 307, (S)-2-hydroxy-N-(2-(2-methylpyridin-4-yl)-1H-pyrrolo[3,2-c]pyridin-6-yl)propanamide]	–	–	–	0 to 33%	0 to 33%
COc1nccc(-c2cc3cnc(NC(=O)c4cn(CC5CCOC5)nc4C)cc3[nH]2)n1 (stereo in doubt) [Example 326, (S)-N-(2-(2-methoxypyrimidin-4-yl)-1H-pyrrolo[3,2-c]pyridin-6-yl)-3-methyl-1-((tetrahydrofuran-3-yl)methyl)-1H-pyrazole-4-carboxamide]	–	–	–	0 to 33%	0 to 33%
Cn1cc(C(=O)Nc2cc3[nH]c(C4CC4)cc3cn2)cn1 [Example 88, N-(2-cyclopropyl-1H-pyrrolo[3,2-c]pyridin-6-yl)-1-methyl-1H-pyrazole-4-carboxamide]	> 1 µM	33 to 66%	0 to 33%	–	–
COc1nccc(-c2cc3cnc(NC(=O)c4ccc(OC5CCOCC5)cc4)cc3n2C)n1 [Example 188, N-(2-(2-methoxypyrimidin-4-yl)-1-methyl-1H-pyrrolo[3,2-c]pyridin-6-yl)-4-(tetrahydro-2H-pyran-4-yloxy)benzamide]	–	0 to 33%	67 to 100%	–	–
Cn1cc(C(=O)Nc2cc3[nH]c(C4CCOCC4)cc3cn2)cn1 [Example 259, 1-methyl-N-(2-(tetrahydro-2H-pyran-4-yl)-1H-pyrrolo[3,2-c]pyridin-6-yl)-1H-pyrazole-4-carboxamide]	–	–	–	0 to 33%	0 to 33%
Cc1cc(-c2cc3cnc(N(C)C(=O)C4CC4)cc3[nH]2)ccn1 [Example 86, N-methyl-N-(2-(2-methylpyridin-4-yl)-1H-pyrrolo[3,2-c]pyridin-6-yl)cyclopropanecarboxamide]	> 1 µM	33 to 66%	0 to 33%	–	–
CC(=O)Nc1cc2[nH]c(-c3cccnc3)cc2cn1 [Example 198, N-(2-(pyridin-3-yl)-1H-pyrrolo[3,2-c]pyridin-6-yl)acetamide]	–	–	–	0 to 33%	67 to 100%
O=C(Nc1cc2[nH]c(-c3ccnc(C(F)(F)F)n3)cc2cn1)[C@H]1C[C@H](O)C1 [Example 92, (1r,3r)-3-hydroxy-N-(2-(2-(trifluoromethyl)pyrimidin-4-yl)-1H-pyrrolo[3,2-c]pyridin-6-yl)cyclobutanecarboxamide]	> 1 µM	33 to 66%	0 to 33%	–	–
Cn1cc(C(=O)Nc2cc3c(cn2)cc(-c2ccnc(NCC(F)(F)F)n2)n3CCO)cn1 [Example 80, N-(1-(2-hydroxyethyl)-2-(2-(2,2,2-trifluoroethylamino)pyrimidin-4-yl)-1H-pyrrolo[3,2-c]pyridin-6-yl)-1-methyl-1H-pyrazole-4-carboxamide]	> 1 µM	0 to 33%	33 to 66%	–	–
CCOc1nccc(-c2cc3cnc(NC(=O)[C@H]4C[C@H](O)C4)cc3[nH]2)n1 [Example 253, (1r,3r)-N-(2-(2-ethoxypyrimidin-4-yl)-1H-pyrrolo[3,2-c]pyridin-6-yl)-3-hydroxycyclobutanecarboxamide]	–	–	–	0 to 33%	0 to 33%
Cc1cc(-c2cc3cnc(NC(=O)C(C)(C)C)cc3[nH]2)ccn1 [Example 301, N-(2-(2-methylpyridin-4-yl)-1H-pyrrolo[3,2-c]pyridin-6-yl)pivalamide]	–	–	–	0 to 33%	0 to 33%
Cc1cc(-c2cc3cnc(NC4CCN(C)CC4)cc3[nH]2)ccn1 [Example 112, N-(1-methylpiperidin-4-yl)-2-(2-methylpyridin-4-yl)-1H-pyrrolo[3,2-c]pyridin-6-amine]	> 1 µM	–	–	–	–
CC(Oc1nccc(-c2cc3cnc(NC(=O)c4cnn(C)c4)cc3[nH]2)n1)C(F)(F)F (stereo in doubt) [Example 314, (R)-1-methyl-N-(2-(2-(1,1,1-trifluoropropan-2-yloxy)pyrimidin-4-yl)-1H-pyrrolo[3,2-c]pyridin-6-yl)-1H-pyrazole-4-carboxamide]	–	–	–	0 to 33%	0 to 33%
Cn1c(-c2ccnc(NCC(F)(F)F)c2)cc2cnc(NC3CCOCC3)cc21 [Example 382, 1-methyl-N-(tetrahydro-2H-pyran-4-yl)-2-(2-(2,2,2-trifluoroethylamino)pyridin-4-yl)-1H-pyrrolo[3,2-c]pyridin-6-amine]	> 1 µM	–	–	–	–
Cn1ncc2ccc(Nc3cc4[nH]c(-c5ccncc5)cc4cn3)cc21 [Example 195, 1-methyl-N-(2-(pyridin-4-yl)-1H-pyrrolo[3,2-c]pyridin-6-yl)-1H-indazol-6-amine]	–	67 to 100%	67 to 100%	–	–
CO[C@H]1C[C@H](C(=O)Nc2cc3[nH]c(-c4ccnc(C)c4)cc3cn2)C1 [Example 161, (1r,3r)-3-methoxy-N-(2-(2-methylpyridin-4-yl)-1H-pyrrolo[3,2-c]pyridin-6-yl)cyclobutanecarboxamide]	–	0 to 33%	67 to 100%	–	–
